According to patent publication US12448358B2, “Inhibitors of protein arginine deiminase 1 and methods of preparation and use thereof” (University of Massachusetts, priority 2019, dated 2025):

Tests used:
[1] = target: T1, PAD1 (Homo sapiens, UniProt Q9ULC6); assay: Target engagement assay: labelling of PAD1 in HEK293TPAD1 cells with 21 in the presence of inhibitor; format: cell-based; settings: 5 μM of 21, 3 h, read-out: EC50 of inhibition of labelling of PAD1 by 21
T1 construct: made in house
T1 sequence (Q9ULC6 1-663): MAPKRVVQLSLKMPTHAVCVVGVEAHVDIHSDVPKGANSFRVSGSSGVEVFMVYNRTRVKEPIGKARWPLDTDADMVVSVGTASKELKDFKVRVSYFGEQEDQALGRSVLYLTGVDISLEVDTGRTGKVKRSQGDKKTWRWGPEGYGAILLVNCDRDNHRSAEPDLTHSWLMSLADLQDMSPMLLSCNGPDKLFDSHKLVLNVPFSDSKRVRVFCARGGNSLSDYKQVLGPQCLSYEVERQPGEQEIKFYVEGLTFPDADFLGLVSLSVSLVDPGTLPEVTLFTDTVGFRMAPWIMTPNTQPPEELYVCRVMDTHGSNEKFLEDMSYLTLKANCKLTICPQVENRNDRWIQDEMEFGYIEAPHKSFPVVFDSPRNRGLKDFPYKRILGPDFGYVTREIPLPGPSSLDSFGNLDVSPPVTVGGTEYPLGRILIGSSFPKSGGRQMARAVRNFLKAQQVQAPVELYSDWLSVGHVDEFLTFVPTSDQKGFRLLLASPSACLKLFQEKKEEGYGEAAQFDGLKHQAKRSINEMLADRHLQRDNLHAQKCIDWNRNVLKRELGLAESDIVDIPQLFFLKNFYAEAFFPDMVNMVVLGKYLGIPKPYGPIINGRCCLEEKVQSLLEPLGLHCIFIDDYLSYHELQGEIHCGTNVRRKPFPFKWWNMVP
Method: Target Engagement Assay—Labelling of PAD1 in HEK293TPAD1 cells with 21 in the presence of 1. This study followed a similar procedure to that described for the dose-dependent labelling of PAD1 in HEK293TPAD1 cells with 21. Briefly, HEK293TPAD1 cells were treated with 1 mM CaCl2, 5 μM ionomycin, 5 μM of 21, and increasing concentrations (0-50 μM) of 1 in serum-free DMEM for 3 h. Cells were scraped, harvested by centrifugation at 3,000 rpm for 5 min and resuspended in 1×PBS. Lysis was carried out by sonicating the cells with a probe sonicator and lysates were clicked with TAMRA-N3 in the presence of TCEP, TBTA and CuSO4 as described above. Protein bands were separated by SDS-PAGE and were visualized by recording in-gel fluorescence. […] All the experiments were performed at least in duplicate.

[2] = target: T1, PAD1; assay: Inhibition of RFA labelling of PAD1 (ABPP assay); format: binding; settings: PAD1 2 μM, RFA 2 μM, 37° C., 2 h
Source text: The halogen-dependent change in potency of the PAD1 inhibitors was further confirmed using an activity-based protein profiling (ABPP) assay that uses the PAD-targeted probe, rhodamine-conjugated F-amidine (RFA, FIG. 2C).
RFA enables the covalent modification and fluorescent labelling of PADs with the help of its fluoroacetamidine and rhodamine moieties, respectively. However, in the presence of a PAD inhibitor that can compete for binding to the active site, RFA labelling is inhibited. […] Similar results were obtained with the chloroacetamidine-containing compounds 2, 12, 14 and 8 (FIG. 9).
RFA labelling. RFA labelling of PAD1 in the presence of inhibitors followed a protocol similar to that established for PAD2. (Mondal, et al. ACS Chem. Biol. 2018, 13, 1057-1065.) Briefly, PAD1 (2 μM final) was added to prewarmed (10 min at 37° C.) reaction mixture (100 mM TRIS pH 7.4, 50 mM NaCl, 10 mM CaCl2, and 2 mM DTT in a final volume of 30 μL) containing RFA (2 μM final) and DMSO or various concentrations of the inhibitor. […] In-gel fluorescence of the protein bands was recorded using a typhoon scanner (excitation/emission maxima of ˜546/579, respectively) and was quantified using ImageJ software. IC50 values of the inhibitors were obtained by plotting the relative decrease in the fluorescence intensity of protein bands against the concentration of inhibitor. […]

EC50 [1]: 12.7 µM
IC50 [2]: 18 µM
SMILES: N=C(CF)NCCC[C@H](NC(=O)c1cc(I)cc(I)c1O)c1nc2ccccc2[nH]1 [Compound 1]
